# Measured values published in PubChem BioAssay (NCI).
#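 Cultured in 96-well plates, cells were exposed to test compound for 48 hours across five concentrations. Here, GI50 denotes the concentration required for 50% inhibition of growth. TGI marks complete inhibition of growth.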
# Assays:
# Experiment in all cases: NCI anticancer screen, dose series, 48 h
# HOP-92 NSCLC = tested on: HOP-92 NSCLC
# SW-620 colon = tested on: SW-620 colon
# SN12C renal = tested on: SN12C renal
# T-47D breast = tested on: T-47D breast
# A549 NSCLC = tested on: A549 NSCLC
# 786-0 renal = tested on: 786-0 renal
# SF-295 CNS = tested on: SF-295 CNS
# COLO 205 colon = tested on: COLO 205 colon
# HS 578T breast = tested on: HS 578T breast
# SK-MEL-5 melanoma = tested on: SK-MEL-5 melanoma
Structure (SMILES),TGI (HOP-92 NSCLC) [µM],TGI (SW-620 colon) [µM],TGI (SN12C renal) [µM],TGI (T-47D breast) [µM],TGI (A549 NSCLC) [µM],TGI (786-0 renal) [µM],TGI (SF-295 CNS) [µM],TGI (COLO 205 colon) [µM],TGI (HS 578T breast) [µM],TGI (SK-MEL-5 melanoma) [µM],GI50 (SW-620 colon) [nM],GI50 (HOP-92 NSCLC) [nM],GI50 (SN12C renal) [nM],GI50 (T-47D breast) [nM],GI50 (A549 NSCLC) [µM],GI50 (SF-295 CNS) [µM],GI50 (COLO 205 colon) [nM],GI50 (HS 578T breast) [µM],GI50 (SK-MEL-5 melanoma) [µM]
NC(CCC(=O)O)(CCC(=O)O)CCC(=O)O,> 100,> 100,> 100,> 100,> 100,> 100,> 100,> 100,> 100,> 100,,,,,,,,,
COc1cccc(C2SCC(=O)N2c2ccc(-n3c(-c4ccccc4)nc4ccccc4c3=O)cc2)c1OC (centres undefined),> 100,> 100,> 100,> 100,> 100,> 100,> 100,> 100,> 100,> 100,,,,,,,,,
CCOC(=O)/C=C(\C(=O)OCC)n1ccc(=O)n(CC(=O)OCC)c1=O,3.06,2.72,9.38,7.39,32.3,4.1,34.6,3.16,53.7,25.8,1420,,,,,,,,
COc1ccc(-c2cc(=O)c3cc4c(cc3[nH]2)OCO4)cc1,,> 100,> 100,,> 100,> 100,> 100,> 100,,> 100,,,,,,,,,
c1ccc2c(c1)nc1n2C2CCC(C2)N1 (centres undefined),> 10,> 10,> 10,> 10,> 10,> 10,> 10,> 10,> 10,> 10,,,,,,,,,
Cc1n[nH]c(=O)n1/N=C\CC/C=N\n1c(C)n[nH]c1=O,> 100,> 100,> 100,> 100,> 100,> 100,> 100,> 100,> 100,> 100,,,,,,,,,
COc1cccc2nc3cc(C)c(C)cc3nc12,> 100,> 100,> 100,,> 100,> 100,> 100,> 100,,> 100,,,,,,,,,
Cc1ccc(-c2c(C#N)c(N)nc3c2CCS(=O)(=O)c2ccccc2-3)cc1,> 100,> 100,> 100,> 100,> 100,> 100,,> 100,> 100,> 100,,,,,,,,,
O=C(NCCc1ccccc1)c1c(O)c2ccccc2[nH]c1=O,> 100,> 100,> 100,,> 100,> 100,> 100,> 100,> 100,> 100,,,,,,,,,
Oc1ccc(/C=C/c2ccc3cccc(O)c3n2)cc1O,> 100,> 100,12.8,6.52,27.8,50.9,76.9,29.6,> 100,13.4,,,,,,,,,
CC(=O)O[C@H]1CCn2c3c(c(C)c21)C(=O)C(N1CC1)=C(C)C3=O,,> 10,> 10,> 10,7.83,> 10,> 10,> 10,> 10,6.67,,,,,,,,,
C=CCCCC1CCCNC1=S (centres undefined),> 100,> 100,> 100,> 100,> 100,> 100,> 100,,> 100,> 100,,,,,,,,,
CC(C)(C)[Si](C)(C)OCCOCn1cc(F)c(=O)[nH]c1=O,,> 100,> 100,> 100,> 100,> 100,> 100,> 100,> 100,> 100,,,,,,,,,
CC(C)CC(NC(=O)C(CCI)Cc1ccccc1)C(=O)Nc1ccccc1 (centres undefined),> 100,> 100,> 100,,> 100,> 100,> 100,> 100,,> 100,,,,,,,,,
CC(C)C12C=CC(C)(CC1)n1c(=O)c3cc4ccccc4cc3c(=O)n12 (centres undefined),> 100,> 100,> 100,,> 100,> 100,> 100,> 100,,> 100,,,,,,,,,
CC(C)C1COC(c2cccc(C3=N[C@@H](C(C)C)CO3)n2)=N1 (some centres undefined),> 100,> 100,> 100,,> 100,> 100,> 100,> 100,,> 100,,,,,,,,,
CC12c3c4cc(Br)cc3Oc3cc(Br)cc(c31)Oc1cc(Br)cc(c12)O4,,> 100,83.4,> 100,> 100,44.4,> 100,> 100,> 100,84.5,,,,,,,,,
O=c1c2cn[nH]c2nc2scc(-c3ccc(Cl)cc3)n12,,> 100,> 100,> 100,> 100,> 100,> 100,> 100,> 100,> 100,,,,,,,,,
Clc1nc(NCCc2ccccc2)c2ncn(-c3ccccc3)c2n1,,> 100,85.4,98.2,> 100,31.4,> 100,50.6,76.7,32.5,,,,,,,,,
CCN(CC)C(=S)N=Nc1c(O)[nH]c2ccccc12,8.52,19.7,14.2,,11.9,11.4,11.5,11.6,69.5,2.41,,,,,,,,,
O=C1NC(=O)C(COCc2ccccc2)C2=C1SCCC2 (centres undefined),> 100,> 100,,,> 100,> 100,> 100,> 100,> 100,> 100,,,,,,,,,
CCC(=O)N(O)C(C)(C)C,> 100,> 100,> 100,,> 100,> 100,> 100,> 100,,> 100,,,,,,,,,

Structure (SMILES),TGI (HOP-92 NSCLC) [µM],TGI (SW-620 colon) [µM],TGI (SN12C renal) [µM],TGI (T-47D breast) [µM],TGI (A549 NSCLC) [µM],TGI (786-0 renal) [µM],TGI (SF-295 CNS) [µM],TGI (COLO 205 colon) [µM],TGI (HS 578T breast) [µM],TGI (SK-MEL-5 melanoma) [µM],GI50 (SW-620 colon) [nM],GI50 (HOP-92 NSCLC) [nM],GI50 (SN12C renal) [nM],GI50 (T-47D breast) [nM],GI50 (A549 NSCLC) [µM],GI50 (SF-295 CNS) [µM],GI50 (COLO 205 colon) [nM],GI50 (HS 578T breast) [µM],GI50 (SK-MEL-5 melanoma) [µM]
COc1cc2c(cc1OC)C(C)N(C)c1c-2c(OC(C)=O)cc2cc(OC)c(OC)cc12 (centres undefined),,> 78.2,> 46.2,24.1,> 69.2,62,53.4,20,> 57.1,15.8,,,,,,,,,
C[C@]12CCc3sc(Nc4ccc(O)cc4)nc3C1=CC[C@@H]1[C@@H]2CC[C@]2(C)C(=O)CC[C@@H]12,5.65,4.73,> 100,5.03,> 100,,35.9,3.9,> 100,31.9,2080,2390,2910,1950,4.42,5.26,2000,3.38,4.33
COC(=O)[C@@]12C(=O)C(C)C(=O)[C@]1(C)C(C)=C[C@H]1[C@]3(C=O)CC[C@H](OC(C)=O)C(C)(C)[C@H]3CC[C@@]12C (some centres undefined),> 100,> 100,,> 100,> 100,> 100,> 100,> 100,> 100,> 100,,,,,,,,,
O=C(Cc1ccccc1)NNc1nc(NNC(=O)c2ccncc2)nc(Nc2cccc(Cl)c2)n1,> 10,> 10,> 10,> 10,> 10,> 10,,> 10,> 10,> 10,,,,,,,,,
CN(C)CCn1c(=O)c2ccc3c4c(nn3CCN(C)C)c3cc(O)ccc3n(c1=O)c24,,3.61,0.842,> 39.2,1.54,0.424,0.271,0.609,0.373,0.787,,,,,,,,,
O=C(CCCN1CCC2(CC1)CC(=O)N(N1CCCCCC1)C2=O)c1ccc(F)cc1,,> 100,> 100,> 100,> 100,38.1,63.2,> 100,> 100,> 100,,,,,,,,,
CCOP(=O)(OCC)C1=C(c2ccccc2)OC(N)=C(C#N)C1c1ccc(Cl)cc1 (centres undefined),> 100,> 100,> 100,> 100,> 100,> 100,> 100,> 100,,> 100,,,,,,,,,
O=C(/C=C/c1ccc(Cl)cc1)c1cccs1,,30.4,33.2,45.1,83.5,30,38.5,37.9,> 100,32.5,,,,,,,,,
O=C1/C(=C/c2c(Cl)[nH]c3ccccc23)c2ccccc2N1c1ccccc1,31.8,41.7,20.3,16,> 100,25.4,8.54,5.34,30.2,,,,,,,,,,
NC(CCCCNC(=O)CNC(=O)OCc1ccccc1)C(=O)NC(CCCCNC(=O)CNC(=O)OCc1ccccc1)C(=O)NC(CCCCNC(=O)CNC(=O)OCc1ccccc1)C(=O)NC(CCCCNC(=O)CNC(=O)OCc1ccccc1)C(=O)NC(CCCCNC(=O)CNC(=O)OCc1ccccc1)C(=O)NC(CCCCNC(=O)CNC(=O)OCc1ccccc1)C(=O)O (centres undefined),,> 75,> 75,> 75,> 75,> 75,,,,> 75,,,,,,,,,
CC1(C)OC(=O)C2(O1)C(=O)C1CCCCC12 (centres undefined),,> 100,> 100,> 100,> 100,> 100,> 100,> 100,> 100,> 100,,,,,,,,,
Cc1ccc2c(C)c3ccc4ccccc4c3c[n+]2c1,52.7,> 82.1,24,,> 100,80.3,> 81.1,27.2,,25.4,,,,,,,,,
c1ccc(C2OCCO2)c(OCCOc2cc(OCCOc3ccccc3C3OCCO3)c(OCCOc3ccccc3C3OCCO3)cc2OCCOc2ccccc2C2OCCO2)c1,21,> 100,> 100,,> 100,17.3,> 100,> 100,,> 100,,,,,,,,,
CCOc1cc2c(cc1OC(C)=O)C(=O)CC[C@H]1C3CC[C@H](OC(C)=O)[C@@]3(C)CC[C@H]21 (some centres undefined),> 100,> 100,,> 100,> 100,> 100,> 100,> 100,> 100,> 100,,,,,,,,,
Cc1ccc(S(=O)(=O)Nn2c(S)c(C#N)c(-c3ccc([N+](=O)[O-])cc3)c(C#N)c2=O)cc1,> 100,35.1,37.3,,> 100,52.2,> 100,98.3,86.5,29.5,,,,,,,,,
COc1ccc(C(=O)/C=C/c2cccnc2)cc1OC,26.7,,18.3,22,27.7,14.1,26.3,22.9,49.6,27.4,,,,,,,,,
COC(=O)C1CCC(=O)N1C(c1ccccc1)c1cc(OC)c(OC)c(OC)c1 (centres undefined),> 100,> 100,> 100,> 100,> 100,> 100,> 100,> 100,,,,,,,,,,,
O=C(CNC(=O)OCc1ccccc1)NCCCCC(NC(=O)OCc1ccccc1)C(=O)NC(CCCCNC(=O)CNC(=O)OCc1ccccc1)C(=O)OCc1ccccc1 (centres undefined),,> 62.5,> 62.5,> 62.5,> 62.5,> 62.5,,,,> 62.5,,,,,,,,,
CC(=O)N1N(c2ccc([N+](=O)[O-])cc2)C(=O)C1(C)C,,29.2,32.5,> 100,,36.6,> 100,30.5,> 100,30.8,,,,,,,,,
COC(C)(C)CCc1[nH]c2ccccc2c1CC(=O)NCCc1cncn1C,> 100,> 100,> 100,> 100,> 100,> 100,,> 100,> 100,> 100,,,,,,,,,
N#Cc1[nH]c(=O)n(-c2cccc3ccccc23)c1N,,> 10,> 10,> 10,> 10,> 10,> 10,> 10,> 10,> 10,,,,,,,,,
C/C(=N\NC(=S)Nc1ccc(C)cc1)c1nc2ncccc2[nH]1,24.1,24,30.8,18,44.7,18.7,,17.6,58.9,4.73,,,,,,,,,
